We go through 15 compounds from patent US20160318891A1, “TONABERSAT PRODRUGS” (PROXIMAGEN LIMITED, priority 2013, published 2016).

SMILES strings stand for the structures. pIC50: −log10 of the molar value. Values after ≈ are worked out from the molar mass of the structure shown. Read-outs that look alike come from different tables or passages of the source.

Data set [1] deals with T1, human ether a go-go related gene (hERG) K+ channel (Homo sapiens, UniProt Q12809).
T1 construct: a Chinese Hamster Lung cell line stably expressing the full length hERG channel; expressed in transfected cells; host or cells: Chinese Hamster Lung cell line
T1 sequence (Q12809 whole entry): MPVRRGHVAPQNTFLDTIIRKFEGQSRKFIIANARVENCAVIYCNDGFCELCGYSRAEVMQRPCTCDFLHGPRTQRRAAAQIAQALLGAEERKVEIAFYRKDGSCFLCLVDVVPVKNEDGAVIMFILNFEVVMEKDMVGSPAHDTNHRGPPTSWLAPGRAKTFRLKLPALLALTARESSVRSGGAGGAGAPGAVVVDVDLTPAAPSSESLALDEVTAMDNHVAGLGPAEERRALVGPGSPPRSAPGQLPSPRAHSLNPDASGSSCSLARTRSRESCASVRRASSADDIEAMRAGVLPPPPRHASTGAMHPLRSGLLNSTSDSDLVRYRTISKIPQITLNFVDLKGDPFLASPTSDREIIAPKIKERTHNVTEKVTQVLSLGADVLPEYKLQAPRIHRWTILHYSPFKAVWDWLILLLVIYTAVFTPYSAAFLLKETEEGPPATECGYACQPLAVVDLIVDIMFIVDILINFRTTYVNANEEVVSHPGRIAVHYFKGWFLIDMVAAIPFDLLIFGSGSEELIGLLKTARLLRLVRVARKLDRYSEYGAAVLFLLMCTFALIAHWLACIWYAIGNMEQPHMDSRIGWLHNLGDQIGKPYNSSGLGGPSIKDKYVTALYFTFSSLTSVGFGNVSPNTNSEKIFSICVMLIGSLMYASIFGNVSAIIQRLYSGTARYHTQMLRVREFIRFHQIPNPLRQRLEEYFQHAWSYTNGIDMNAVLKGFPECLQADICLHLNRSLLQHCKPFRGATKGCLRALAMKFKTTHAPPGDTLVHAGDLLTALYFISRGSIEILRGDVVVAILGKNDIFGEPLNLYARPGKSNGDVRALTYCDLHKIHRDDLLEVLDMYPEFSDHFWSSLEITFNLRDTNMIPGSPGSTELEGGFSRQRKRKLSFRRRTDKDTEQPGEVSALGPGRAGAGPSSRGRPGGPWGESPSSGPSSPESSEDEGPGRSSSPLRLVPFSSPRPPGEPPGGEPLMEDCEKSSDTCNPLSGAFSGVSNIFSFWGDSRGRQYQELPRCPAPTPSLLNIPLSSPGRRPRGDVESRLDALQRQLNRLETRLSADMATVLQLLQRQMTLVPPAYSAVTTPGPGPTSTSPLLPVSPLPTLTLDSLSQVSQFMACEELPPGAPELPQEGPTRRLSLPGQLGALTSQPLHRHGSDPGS
The data set is described as follows: hERG assay, IonWorks patch clamp electrophysiology. It counts as cell-based. As to conditions: Chinese Hamster Lung cell line stably expressing hERG; maximum assay concentration 33 uM. As to the method: (§1) Compounds of the invention were tested for inhibition of the human ether a go-go related gene (hERG) K^+ channel using IonWorks patch clamp electrophysiology. 8 Point concentration-response curves were generated on two occasions using 3-fold serial dilutions from the maximum assay concentration (33 uM). Electrophysiological recordings were made from a Chinese Hamster Lung cell line stably expressing the full length hERG channel. Single cell ion currents were measured in the perforated patch clamp configuration (100 ug/mL amphoterocin) at room temperature using an IonWorks Quattro instrument. The internal solution contained 140 mM KCl, 1 mM MgCl2, 1 mM EGTA and 20 mM HEPES and was buffered to pH 7.3. The external solution contained 138 mM NaCl, 2.7 mM KCl, 0.9 mM CaCl2, 0.5 mM MgCl2, 8 mM Na2HPO4 and 1.5 mM KH2PO4, and was buffered to pH 7.3. Cells were clamped at a holding potential of […] for 30 s and then stepped to +40 mV for is. This was followed by a hyperpolarising step of 1 s to […] to evoke the hERG tail current. This sequence was repeated 5 times at a frequency of 0.25 Hz. Currents were measured from the tail step at the 5th pulse, and referenced to the holding current. Compounds were incubated for 6-7 min prior to a second measurement of the hERG signal using an identical pulse train. […] A control compound (quinidine) was used.
In general terms: hERG is a cardiac potassium channel; its block is linked to QT prolongation.

Data set [2] is described as follows: Solubility in aqueous solution. The data set is classed as physicochemical. An excerpt: In an embodiment prodrugs of the present invention are suitable for oral administration. The skilled person understands that the pH of the gastrointestinal tract changes along its length. For example, the stomach has a pH of around pH 1.5 and the GI tract after the stomach has a pH of around 5 to 7.5. For more detail see, for example, Measurement of gastrointestinal pH profiles in normal ambulant human subjects, Gut. 1988 August; 29(8): 1035-1041. Improved solubility is expected to result in improved absorption, and therefore improved oral bioavailability. Thus improved solubility at any pH value between around pH 1.5 to 8 is expected to improve oral bioavailability. Compounds of the invention were assessed for solubility in aqueous solutions having a pH of from 2 to 10. In an embodiment prodrugs of the invention have a solubility of >0.5 mg/mL in an aqueous solution having a pH of from 2 to 8. In an embodiment prodrugs have a solubility of >5.0 mg/mL, or >10.0 mg/mL, >100.0 mg/mL, or >200.0 mg/mL. In an embodiment the prodrugs have the aforementioned aqueous solubility at a pH within the range of from 4 to 8, or from 6 to 8.
In an embodiment prodrugs of the invention are administered intravenously. High prodrug solubility is advantageous in order to reduce the volume of solution administered to the patient, and to reduce the risk of damage to the circulatory system. Solubility of >10 mg/mL is preferred. Yet more preferred is solubility of >30 mg/mL or >100.0 mg/mL. Yet more preferred is solubility of >200.0 mg/mL. The solubility is measured in an aqueous solution having a pH of from 2 to 10, which pH range is advantageous for intravenous prodrug delivery. See, for example, A guide on intravenous drug compatibilities based on their pH, Nasser S C et al./Pharmacie Globale (IJCP) 2010, 5 (01)). In an embodiment the prodrugs of the claimed invention have solubility of >10 mg/mL in an aqueous solution having a pH of from 2 to 10.

The next data set has as its target T2, hERG K+ channel (Homo sapiens, UniProt Q12809).
T2 construct: a Chinese Hamster Lung cell line stably expressing the full length hERG channel; expressed in transfected cells; host or cells: Chinese Hamster Lung cell line
The data set can be described thus: hERG assay, IonWorks patch clamp electrophysiology. It counts as cell-based. As to conditions: human, pH 7.3; 11 uM; Chinese Hamster Lung cell line stably expressing hERG. As to the method:
as §1

The conditions of data set [3]: over a range of pH values including pH of 7.4; cited from earlier work.
In data set [4] the test system is high K+ evoked CSD. As to conditions: cats; cited from earlier work.
The test system of data set [5] is high K+ evoked CSD. Conditions: rats; cited from earlier work.
For data set [6] the following is noted: cited from earlier work.
For data set [7] the following is noted: rat brain; cited from earlier work.
For data set [8] the following is noted: human brain; cited from earlier work.

T2 sequence (Q12809 whole entry): as above

Take `CC(=O)c1ccc2c(c1)[C@H](NC(=O)c1ccc(F)c(Cl)c1)[C@H](OC(=O)[C@H](C)N)C(C)(C)O2.Cl` [Example 1, (3S,4S)-6-Acetyl-4-[(3-chloro-4-fluorobenzene)amido]-2,2-dimethyl-3,4-dihydro-2H-1-benzopyran-3-yl (2S)-2-aminopropanoate hydrochloride]: the pIC50 (usually the negative decadic logarithm of the IC50, by convention in mol/L) in data set [1] was 5.22. For the same compound, in data set [2] (aqueous buffer, pH 4.0), the solubility – broadly, the dissolved amount per volume that the medium holds – is greater than 10000 µg/mL.

Turning to `CC(=O)c1ccc2c(c1)[C@H](NC(=O)c1ccc(F)c(Cl)c1)[C@H](OC(=O)[C@@H](N)C(C)C)C(C)(C)O2.Cl` [Example 2, (3S,4S)-6-Acetyl-4-[(3-chloro-4-fluorobenzene)amido]-2,2-dimethyl-3,4-dihydro-2H-1-benzopyran-3-yl (2S)-2-amino-3-methylbutanoate hydrochloride], 11 µM produced 38% inhibition at hERG K+ channel. The compound also returned a solubility in data set [2] (pH 4.4, aqueous buffer) of roughly 5000 µg/mL.

Consider `CC(=O)c1ccc2c(c1)[C@H](NC(=O)c1ccc(F)c(Cl)c1)[C@H](OC(=O)[C@H](N)C(C)C)C(C)(C)O2.Cl` [Example 3, (3S,4S)-6-Acetyl-4-[(3-chloro-4-fluorobenzene)amido]-2,2-dimethyl-3,4-dihydro-2H-1-benzopyran-3-yl (2R)-2-amino-3-methylbutanoate hydrochloride], for which the pIC50 in [1] was 5.37. The solubility in [2] (pH 4.8, aqueous buffer) was less than 1000 µg/mL.

In data set [2] (pH 4.2, aqueous buffer), `CC(=O)c1ccc2c(c1)[C@H](NC(=O)c1ccc(F)c(Cl)c1)[C@H](OC(=O)[C@H](N)CC(C)C)C(C)(C)O2.Cl` [Example 4, (3S,4S)-6-Acetyl-4-[(3-chloro-4-fluorobenzene)amido]-2,2-dimethyl-3,4-dihydro-2H-1-benzopyran-3-yl (2R)-2-amino-4-methylpentanoate hydrochloride] returned a solubility greater than 10000 µg/mL.

For `CC(=O)c1ccc2c(c1)[C@H](NC(=O)c1ccc(F)c(Cl)c1)[C@H](OC(=O)[C@@H]1CCCN1)C(C)(C)O2.Cl` [Example 5, (3S,4S)-6-Acetyl-4-[(3-chloro-4-fluorobenzene)amido]-2,2-dimethyl-3,4-dihydro-2H-1-benzopyran-3-yl (2S)-pyrrolidine-2-carboxylate hydrochloride], the pIC50 in data set [1] was 5.85. The same compound returned a solubility in [2] (pH 4.4, aqueous buffer) greater than 10000 µg/mL.

Regarding `CC(=O)c1ccc2c(c1)[C@H](NC(=O)c1ccc(F)c(Cl)c1)[C@H](OC(=O)C(C)(C)N)C(C)(C)O2.Cl` [Example 6, (3S,4S)-6-Acetyl-4-[(3-chloro-4-fluorobenzene)amido]-2,2-dimethyl-3,4-dihydro-2H-1-benzopyran-3-yl 2-amino-2-methylpropanoate hydrochloride], the solubility in [2] (pH 4.7, aqueous buffer) is greater than 10000 µg/mL.

With `CN[C@@H](C)C(=O)O[C@H]1[C@@H](NC(=O)c2ccc(F)c(Cl)c2)c2cc(C(C)=O)ccc2OC1(C)C.Cl` [Example 8, (3S,4S)-6-Acetyl-4-[(3-chloro-4-fluorobenzene)amido]-2,2-dimethyl-3,4-dihydro-2H-1-benzopyran-3-yl (2S)-2-(methylamino)propanoate hydrochloride], in data set [2] (pH 5.1, aqueous buffer), the solubility is greater than 10000 µg/mL.

As to `CC(=O)c1ccc2c(c1)[C@H](NC(=O)c1ccc(F)c(Cl)c1)[C@H](OC(=O)[C@@H](N)CCCCN)C(C)(C)O2.Cl.Cl` [Example 9, (3S,4S)-6-Acetyl-4-[(3-chloro-4-fluorobenzene)amido]-2,2-dimethyl-3,4-dihydro-2H-1-benzopyran-3-yl (2S)-2,6-diaminohexanoate dihydrochloride], at 11 µM the inhibition against hERG K+ channel was 0%. For the same compound, the solubility in data set [2] (pH 4.4, aqueous buffer) was greater than 10000 µg/mL.

As to `CC(=O)c1ccc2c(c1)[C@H](NC(=O)c1ccc(F)c(Cl)c1)[C@H](OC(=O)[C@@H](N)CC(N)=O)C(C)(C)O2.Cl` [Example 10, (3S,4S)-6-Acetyl-4-[(3-chloro-4-fluorobenzene)amido]-2,2-dimethyl-3,4-dihydro-2H-1-benzopyran-3-yl (2S)-2-amino-3-carbamoylpropanoate hydrochloride], at 11 µM the inhibition against hERG K+ channel was 18%. This compound came in with a solubility in [2] (pH 4.4, aqueous buffer) of less than 1000 µg/mL.

Consider `CC(=O)c1ccc2c(c1)[C@H](NC(=O)c1ccc(F)c(Cl)c1)[C@H](OC(=O)[C@@H](N)CCC(N)=O)C(C)(C)O2.Cl` [Example 11, (3S,4S)-6-Acetyl-4-[(3-chloro-4-fluorobenzene)amido]-2,2-dimethyl-3,4-dihydro-2H-1-benzopyran-3-yl (2S)-2-amino-4-carbamoylbutanoate hydrochloride], for which the solubility in data set [2] (pH 4.6, aqueous buffer) was greater than 2000 µg/mL.

Consider `CC(=O)c1ccc2c(c1)[C@H](NC(=O)c1ccc(F)c(Cl)c1)[C@H](OC(=O)[C@@H](N)CCCNC(=N)N)C(C)(C)O2.Cl.Cl` [Example 12, (3S,4S)-6-Acetyl-4-[(3-chloro-4-fluorobenzene)amido]-2,2-dimethyl-3,4-dihydro-2H-1-benzopyran-3-yl (2S)-2-amino-5-carbamimidamidopentanoate dihydrochloride], for which, on hERG K+ channel, the inhibition – broadly, the share of the control response that was lost under treatment – at 11 µM turned out to be 9%. This compound had a solubility in [2] (pH 4.4, aqueous buffer) greater than 10000 µg/mL.

`CC(=O)c1ccc2c(c1)[C@H](NC(=O)c1ccc(F)c(Cl)c1)[C@H](OC(=O)[C@@H](N)CC(=O)O)C(C)(C)O2` [Example 13, (3S)-4-{[(3S,4S)-6-Acetyl-4-[(3-chloro-4-fluorobenzene)amido]-2,2-dimethyl-3,4-dihydro-2H-1-benzopyran-3-yl]oxy}-3-amino-4-oxobutanoic acid; trifluoroacetic acid] showed an inhibition at 11 µM on hERG K+ channel of 19%. This compound returned a solubility in data set [2] (pH 6.5, aqueous buffer) greater than 2000 µg/mL.

For `CC(=O)c1ccc2c(c1)[C@H](NC(=O)c1ccc(F)c(Cl)c1)[C@H](OC(=O)[C@@H](N)CCC(=O)O)C(C)(C)O2` [Example 14, (4S)-5-{[(3S,4S)-6-Acetyl-4-[(3-chloro-4-fluorobenzene)amido]-2,2-dimethyl-3,4-dihydro-2H-1-benzopyran-3-yl]oxy}-4-amino-5-oxopentanoic acid; trifluoroacetic acid], at 11 µM the inhibition at hERG K+ channel was 8%. In data set [2] (pH 4.6, aqueous buffer), the solubility is greater than 2000 µg/mL.

In data set [2] (aqueous buffer, pH 3.0), `CC(=O)c1ccc2c(c1)[C@H](NC(=O)c1ccc(F)c(Cl)c1)[C@H](OCOC[C@@H](O)CO)C(C)(C)O2` [Example 16, N-[(3S,4S)-6-Acetyl-3-{[(2S)-2,3-dihydroxypropoxy]methoxy}-2,2-dimethyl-3,4-dihydro-2H-1-benzopyran-4-yl]-3-chloro-4-fluorobenzamide] gave a solubility of less than 1000 µg/mL.

As for `CC(=O)c1ccc2c(c1)[C@H](NC(=O)c1ccc(F)c(Cl)c1)[C@H](O)C(C)(C)O2` [Tonabersat], in data set [3], the aqueous solubility – broadly, the concentration that dissolves in the medium under given conditions – is 25 µg/mL (≈ 63.8 µM). In addition, the “inhibition of high K+ evoked CSD” value with high K+ evoked CSD [4] and in the data set with high K+ evoked CSD [5] was “inhibits high K+ evoked CSD” in each case. The log P (commonly the decadic logarithm of the partition coefficient of the neutral form, usually between octanol and water) in data set [6] is 3.32. The “binding to unique stereo-selective site” value in [7] is “binds selectively and with high affinity”; in [8], “binds selectively and with high affinity”.
